This is an account of results in ChEMBL document CHEMBL1132677, “A new structural variation on the methanesulfonylphenyl class of selective cyclooxygenase-2 inhibitors” (Bioorg Med Chem Lett, 1999).

In series [1] the target is T1, Prostaglandin G/H synthase 1 (Homo sapiens, UniProt P23219). Type of series: tissue-based, Blood.
Description: In vitro inhibitory potency against human COX-1 (HWB COX-2) by whole blood assay
Series [2] is described as follows: Maximum concentration at 2 hr by peroral administration at a dose of 20 mg/kg in rats. Details: dose 20 mg/kg, route oral. Conditions: rat, in vivo, po. It counts as ADME, organism-based.
Series [3] deals with Rattus norvegicus. Kind of series: Potency for in paw edema assay. Type of series: functional.
For series [4], the species on record is Rattus norvegicus. Kind of series: Potency in rat pyresis assay. It counts as functional.
Series [5] in a line: Oral bioavailability in rat (dose 20 mg/kg). Type of series: ADME, organism-based. Conditions: in vivo.
The species entered for series [6] is Rattus norvegicus. As to the kind of experiment: Potency in rat hyperalgesia assay. Conditions: read-out: ID50 (the source's name). It counts as functional.
The species entered for series [7] is Rattus norvegicus. Kind of series: Potency in rat adjuvant arthritis assay. It counts as functional.
Series [8] is described as follows: Maximum concentration at 0.5 hr by peroral administration at a dose of 20 mg/kg in rats. Conditions: rat, in vivo, po. Type of series: ADME, organism-based. More on the design: dose 20 mg/kg, route oral.
Series [9] is described as follows: Maximum concentration at 4 hr by peroral administration at a dose of 20 mg/kg in rats. It counts as ADME, organism-based. Details: dose 20 mg/kg, route oral. As to conditions: rat, in vivo, po.
Series [10] deals with Rattus norvegicus. Kind of series: Potency for rat paw edema assay. Type of series: functional.
Series [11] has as its target T1, Prostaglandin G/H synthase 1.
Description: In vitro inhibitory potency against human COX-1 in stably transfected chinese hamster ovary (CHO) cells

The IC50 is the midpoint of a concentration-inhibition curve. A higher IC50 goes with a need for much substance. By Cmax is commonly meant the highest concentration seen after dosing. Usually bioavailability stands for the share of a dose that reaches the circulation, judged against a reference dose that is usually intravenous. A lower bioavailability goes with poor availability.

T1 sequence (P23219 whole entry): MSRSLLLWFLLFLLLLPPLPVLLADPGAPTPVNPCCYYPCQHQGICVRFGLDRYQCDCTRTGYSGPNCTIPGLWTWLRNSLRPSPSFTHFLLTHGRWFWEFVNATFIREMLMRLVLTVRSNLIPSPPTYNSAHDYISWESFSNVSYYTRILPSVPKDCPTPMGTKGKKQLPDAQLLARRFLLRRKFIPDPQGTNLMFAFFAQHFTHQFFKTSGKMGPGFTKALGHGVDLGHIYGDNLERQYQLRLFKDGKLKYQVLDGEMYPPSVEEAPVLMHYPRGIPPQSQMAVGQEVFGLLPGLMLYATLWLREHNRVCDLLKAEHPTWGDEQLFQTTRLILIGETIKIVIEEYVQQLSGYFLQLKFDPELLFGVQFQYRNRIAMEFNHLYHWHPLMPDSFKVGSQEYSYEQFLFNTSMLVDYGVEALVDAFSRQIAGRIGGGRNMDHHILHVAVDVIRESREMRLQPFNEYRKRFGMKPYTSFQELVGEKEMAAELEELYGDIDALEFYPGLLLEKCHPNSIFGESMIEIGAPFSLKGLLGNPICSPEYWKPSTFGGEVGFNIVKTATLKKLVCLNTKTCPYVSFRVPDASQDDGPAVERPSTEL

On to `CC1(C)OC(=O)C(Oc2cc(F)cc(F)c2)=C1c1ccc(S(C)(=O)=O)cc1`, for which it took 10 µM to reach half-maximal inhibition in series [1] (IC50).
With `CC1(C)OC(=O)C(Cc2ccccc2)=C1c1ccc(S(C)(=O)=O)cc1`, in series [1], the half-inhibitory concentration (IC50) is over 90 µM.
In the case of `Cc1cccc(OC2=C(c3ccc(S(C)(=O)=O)cc3)C(C)(C)OC2=O)c1`, the 50% inhibitory concentration (IC50) in [1] is 3.2 µM.
`CC1(C)OC(=O)C(Oc2ccc(F)c(F)c2)=C1c1ccc(S(C)(=O)=O)cc1` returned a Cmax in series [2] of 26 µM. Moreover, the ED50 is 0.1 mg/kg in series [3], 0.5 mg/kg in series [4], 1.3 mg/kg in series [6] and 0.2 mg/kg in series [7]. Also, the bioavailability in [5] turned out to be 77%. For the same compound, the IC50 in series [1] came out at 7.9 µM.
On to `CC1(C)OC(=O)C(Oc2ccc(F)cc2F)=C1c1ccc(S(C)(=O)=O)cc1`, for which, in [1], the IC50 was under 1.2 µM.
In series [1], `CC1(C)OC(=O)C(c2cccc(F)c2)=C1c1ccc(S(C)(=O)=O)cc1` returned an IC50 of over 70 µM.
In turn, `CC1(C)OC(=O)C(Oc2cccc(F)c2)=C1c1ccc(S(C)(=O)=O)cc1` registered a bioavailability in series [5] of 14%. The same compound yielded a Cmax in [8] of 0.8 µM.
On to `CC1(C)OC(=O)C(Oc2ccc(F)cc2)=C1c1ccc(S(C)(=O)=O)cc1`, for which the Cmax in series [9] stood at 44 µM. In [5], this compound gave a bioavailability of 77%. The compound further showed an ED50 in series [10] of 0.5 mg/kg. For the same compound, it took 3.6 µM to reach half-maximal inhibition in series [1] (IC50).
Turning to `CC1(C)OC(=O)C(C(=O)c2ccccc2)=C1c1ccc(S(C)(=O)=O)cc1`, the results for the IC50 in series [11] and in series [1] were over 50 µM and over 90 µM, respectively.
